Among the data in patent publication US20090005369A1, “Oxazolidinone Compounds and Compositions and Methods Related Thereto” (priority 2004, published 2009) are Ki, MIC and MICs values, retold here.

The term Ki denotes the dissociation constant of the complex between target and ligand, obtained from inhibition or displacement.

≈ marks a conversion by molar mass, not a printed value.

The target in one experiment is T1, human MAO-A (Homo sapiens, UniProt P21397).
T1 construct: purchased Gentest, BD, USA; host or cells: SF9 insect cells (membranes)
T1 sequence (P21397 1-527): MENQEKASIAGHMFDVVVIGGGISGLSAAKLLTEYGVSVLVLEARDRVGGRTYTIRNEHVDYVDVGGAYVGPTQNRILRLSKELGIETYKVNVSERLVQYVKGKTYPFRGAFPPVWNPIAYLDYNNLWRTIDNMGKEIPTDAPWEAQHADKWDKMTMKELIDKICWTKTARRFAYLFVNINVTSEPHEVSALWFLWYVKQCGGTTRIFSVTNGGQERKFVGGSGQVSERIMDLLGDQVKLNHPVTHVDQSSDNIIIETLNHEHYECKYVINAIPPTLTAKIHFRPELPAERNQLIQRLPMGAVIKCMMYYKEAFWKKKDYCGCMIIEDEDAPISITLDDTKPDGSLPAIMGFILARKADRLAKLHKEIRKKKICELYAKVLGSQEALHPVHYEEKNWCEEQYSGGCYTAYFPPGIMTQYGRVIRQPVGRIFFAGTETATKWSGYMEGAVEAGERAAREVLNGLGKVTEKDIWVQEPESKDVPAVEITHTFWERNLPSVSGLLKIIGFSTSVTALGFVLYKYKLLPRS
The experiment in a line: In vitro MAO-A enzymatic activity (kynuramine substrate, fluorescence). It counts as biochemical. The note with it: membranes from SF9 cells, kynuramine 30 μM, read-out: Inhibitory activity of human MAO, Ki.

The subject of experiment [1] is S. aureus ATCC 25923 MS 319. The experiment in a line: MIC by standard microdilution (NCCLS M7-A5). It counts as cell-based. The following applies: Staphylococcus aureus, ATCC25923, read-out: In vitro activities against bacteria, MIC.
In experiment [2] the test system is S. aureus ATCC 43300 MR 214. Put plainly: MIC by standard microdilution (NCCLS M7-A5). It counts as cell-based. The note with it: Staphylococcus aureus, ATCC43300, read-out: In vitro activities against bacteria, MIC. Background: In broth dilution the organism is exposed to a series of concentrations in liquid medium.
The next experiment deals with T2, human MAO-B (Homo sapiens, UniProt P27338).
T2 construct: purchased Gentest, BD, USA; host or cells: SF9 insect cells (membranes)
T2 sequence (P27338 1-520): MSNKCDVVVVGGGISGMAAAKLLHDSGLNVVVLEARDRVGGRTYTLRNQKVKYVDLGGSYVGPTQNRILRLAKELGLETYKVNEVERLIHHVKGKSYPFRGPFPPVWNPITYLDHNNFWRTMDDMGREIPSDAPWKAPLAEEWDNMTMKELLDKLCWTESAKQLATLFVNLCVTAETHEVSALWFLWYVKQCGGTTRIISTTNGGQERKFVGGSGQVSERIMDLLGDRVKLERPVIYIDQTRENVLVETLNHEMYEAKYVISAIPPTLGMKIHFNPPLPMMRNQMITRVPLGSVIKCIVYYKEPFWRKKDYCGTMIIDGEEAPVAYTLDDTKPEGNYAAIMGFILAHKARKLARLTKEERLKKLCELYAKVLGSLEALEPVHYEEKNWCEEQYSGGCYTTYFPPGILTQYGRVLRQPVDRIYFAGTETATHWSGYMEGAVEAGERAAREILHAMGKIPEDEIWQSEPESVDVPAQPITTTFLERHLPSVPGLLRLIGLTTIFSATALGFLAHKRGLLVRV
The experiment in a line: In vitro MAO-B enzymatic activity (kynuramine substrate, fluorescence). It counts as biochemical. The following applies: membranes from SF9 cells, kynuramine 30 μM, read-out: Inhibitory activity of human MAO, Ki.

Experiment [3] deals with Moraxella catarrhalis HCl-78 259/339. Put plainly: MIC by standard microdilution (NCCLS M7-A5). The following applies: HCL78259/339, read-out: In vitro activities against bacteria, MIC. It counts as cell-based.
The test system of experiment [4] is E. faecalis ATCC 29212 53. The experiment in a line: MIC by standard microdilution (NCCLS M7-A5). It counts as cell-based. The note with it: Enterococcus faecalis, ATCC29212, read-out: In vitro activities against bacteria, MIC.
Experiment [5] relates to E. faecalis ATCC 51575 MDR 311. The experiment in a line: MIC by standard microdilution (NCCLS M7-A5). It counts as cell-based. The following applies: Enterococcus faecalis, ATCC51575, read-out: In vitro activities against bacteria, MIC.
In experiment [6] the test system is E. faecium ATCC 51559 MDR 312. Put plainly: MIC by standard microdilution (NCCLS M7-A5). It counts as cell-based. The note with it: Enterococcus faecium, ATCC51559, read-out: In vitro activities against bacteria, MIC.
The test system of experiment [7] is S. pneumoniae ATCC 49619 PR 215. The experiment in a line: MIC by standard microdilution (NCCLS M7-A5). It counts as cell-based. The note with it: Streptococcus pneumoniae, ATCC49619, read-out: In vitro activities against bacteria, MIC.
Experiment [8] relates to S. epidermidis ATCC 12228 MR 11. Put plainly: microbe, parasite or virus in culture. It counts as cell-based. The note with it: Staphylococcus epidermidis, ATCC12228, read-out: In vitro activities against bacteria, MIC.
Experiment [9] has as its system Moxarella, Pasteurella and Bacteroides spp. The following applies: background statement; cited from earlier work.

For `O=C1O[C@@H](CNC(=S)c2ccco2)CN1c1ccc(N2CCOCC2)c(F)c1` [Example 2, N-[[(5S)-3-[3-fluoro-4-(4-morpholinyl)-phenyl]-2-oxo-5-oxazolidinyl]methyl]furan-2-yl-thioamide], the Ki at human MAO-A stood at 170 µM; at human MAO-B, 5.3 µM. Moreover, the MIC came to 8 µg/mL (≈ 19.7 µM) in [1]; 2 µg/mL (≈ 4.93 µM) in [2]; 2 µg/mL (≈ 4.93 µM) in experiment [3]; 2 µg/mL (≈ 4.93 µM) in experiment [4]; 2 µg/mL (≈ 4.93 µM) in [5]; 1 µg/mL (≈ 2.47 µM) in experiment [6]. In addition, the MIC in experiment [7] amounted to 2 µg/mL (≈ 4.93 µM).

On to `O=C1O[C@@H](CNC(=S)c2ccoc2)CN1c1ccc(N2CCOCC2)c(F)c1` [Example 4, N-[[(5S)-3-[3-fluoro-4-(4-morpholinyl)-phenyl]-2-oxo-5-oxazolidinyl]methyl]furan-3-yl-thioamide], for which the Ki was at least 250 µM at human MAO-A and 2.4 µM on human MAO-B. Also, the MIC in experiment [1], in experiment [2], in experiment [8], in experiment [3], in experiment [4] and in experiment [5] was 1 µg/mL (≈ 2.47 µM) each time. In addition, the MIC in experiment [6] is 2 µg/mL (≈ 4.93 µM); in experiment [7], 1 µg/mL (≈ 2.47 µM).

On to `CC(=O)NC[C@H]1CN(c2ccc(N3CCOCC3)c(F)c2)C(=O)O1` [Linezolid, N-[[(5S)-3-[3-Fluoro-4-(4-morpholinyl)phenyl]-2-oxo-5-oxazolidinyl]methyl]acetamide, reference compound], for which the Ki on human MAO-A stood at 7 µM; at human MAO-B it was 0.48 µM. For the same molecule, the MIC came out at 2 µg/mL (≈ 5.93 µM) in experiment [1]; 1 µg/mL (≈ 2.96 µM) in experiment [2]; 1 µg/mL (≈ 2.96 µM) in [8]; 2 µg/mL (≈ 5.93 µM) in experiment [3]; 0.5 µg/mL (≈ 1.48 µM) in experiment [4]; 0.5 µg/mL (≈ 1.48 µM) in [5]. In addition, the MIC in experiment [6] amounted to 1 µg/mL (≈ 2.96 µM); in experiment [7], 2 µg/mL (≈ 5.93 µM). Also, in experiment [9], the MICs was 2 to 8 µg/mL.

As to `CC(=S)N1CCN(c2ccc(N3C[C@H](CNC(=S)c4ccoc4)OC3=O)cc2F)CC1` [Example 7, N-[[(5S)-3-[3-fluoro-4-(4′-thioacetyl-4-piperazinyl)-phenyl]-2-oxo-5-oxazolidinyl]methyl]furan-3-yl-thioamide], the inhibition constant Ki was at least 200 µM on human MAO-A and 2.8 µM at human MAO-B. In addition, the MIC is 0.5 µg/mL (≈ 1.08 µM) in experiment [1]; 0.5 µg/mL (≈ 1.08 µM) in experiment [2]; 0.5 µg/mL (≈ 1.08 µM) in experiment [8]; 0.25 µg/mL (≈ 0.54 µM) in [3]; 0.13 µg/mL (≈ 0.281 µM) in experiment [4]; 0.06 µg/mL (≈ 0.13 µM) in experiment [5]. Besides, the MIC in experiment [6] and in [7] was 0.5 µg/mL (≈ 1.08 µM) each time.

With `O=C1O[C@@H](CNC(=S)c2ccoc2)CN1c1ccc(N2CCSCC2)c(F)c1` [Example 11, N-[[(5S)-3-[3-fluoro-4-(4-thiomorpholinyl)-phenyl]-2-oxo-5-oxazolidinyl]methyl]furan-3-yl-thioamide], the Ki was at least 250 µM at human MAO-A and 0.6 µM at human MAO-B. For the same molecule, the MIC stood at 2 µg/mL (≈ 4.74 µM) in experiment [1]; 1 µg/mL (≈ 2.37 µM) in experiment [2]; 1 µg/mL (≈ 2.37 µM) in experiment [8]; 4 µg/mL (≈ 9.49 µM) in experiment [3]; 1 µg/mL (≈ 2.37 µM) in experiment [4]; 1 µg/mL (≈ 2.37 µM) in experiment [5]. The MIC in experiment [6] and in experiment [7] was 1 µg/mL (≈ 2.37 µM) each time.

Take `O=C1O[C@@H](CNC(=S)c2ccco2)CN1c1ccc(N2CCSCC2)c(F)c1` [Example 9, N-[[(5S)-3-[3-fluoro-4-(4-thiomorpholinyl)-phenyl]-2-oxo-5-oxazolidinyl]methyl]furan-2-yl-thioamide]: the Ki on human MAO-A is 47.5 µM; on human MAO-B, 1 µM. The MIC was found to be 2 µg/mL (≈ 4.74 µM) in experiment [1]; 4 µg/mL (≈ 9.49 µM) in experiment [2]; 4 µg/mL (≈ 9.49 µM) in experiment [8]; 2 µg/mL (≈ 4.74 µM) in experiment [4]; 2 µg/mL (≈ 4.74 µM) in experiment [5]; 8 µg/mL (≈ 19 µM) in experiment [6]. Further, the MIC in experiment [7] was determined as 4 µg/mL (≈ 9.49 µM).
